Measurements from patent publication US20120270928A1, “MICRORNA COMPOUNDS AND METHODS FOR MODULATING MIR-21 ACTIVITY” (REGULUS THERAPEUTICS INC., priority 2011, published 2012).
Values joined by “and” are separate entries in the source; they are usually repeats but may differ in a detail not shown here. Equal entries are not always repeated.

Experiments:
miR-21 = miR-21 luciferase sensor assay in Hela cells; format: cell-based; details: Hela cells
Description: The compounds were assessed for miR-21 inhibitory activity in a luciferase assay. A microRNA luciferase sensor construct was engineered using pGL3-MCS2 (Promega). The construct was introduced into Hela cells to test the ability of anti-miR compounds to inhibit activity of miR-21. In this assay, miR-21 present in the Hela cells binds to its cognate site(s) in the luciferase sensor construct, and suppresses luciferase expression. When the appropriate anti-miR is introduced into the cells, it binds to miR-21 and relieves suppression of luciferase expression. Thus, in this assay anti-miRs that are effective inhibitors of miR-21 expression will cause an increase in luciferase expression.
Hela cells (ATCC), stably transfected with a luciferase construct engineered to contain a sequence complementary of miR-21, were seeded in T-170 flasks (BD Falcon) at 3.5*10^6 cells/flask. Hela cells were grown in Dulbecco's Modified Eagle Medium with High Glucose (Invitrogen).
Each flask of Hela cells was transfected with 0.5 ug of a phRL sensor plasmid (Promega) expressing Renilla to be used in normalization. Hela cells were transfected using 20 ul Lipofectamine 2000/flask (Invitrogen). After 4 hours of transfection, cells were washed with PBS and trypsinized Hela cells were plated at 40 k/well in 24 well plates (BD Falcon) and left overnight.
Hela cells were transfected with anti-miRs using Lipofectin (Invitrogen) at 2.5 ul Lipofectin/100 nM ASO/ml Opti-MEM I Reduced Serum Medium (Invitrogen) for 4 hours. After ASO transfection, Hela cells were refed with Dulbecco's Modified Eagle Medium with High Glucose (Invitrogen).
Hela cells are passively lysed and luciferase activity measured using the Dual-Luciferase Reporter Assay System (Promega).
The luciferase assay was performed to test the ability of anti-miRs with the nucleoside patterns described herein to inhibit the activity of miR-21. Results were compared to a ‘mock’ treatment, in which cells received no anti-miR treatment. The experiment was repeated and results of two experimental replicates are shown in the following Table B, as the luciferase value normalized to beta-galactosidase activity.
The luciferase assay was performed as described herein to test the ability of anti-miRs in Table F to inhibit the activity of miR-21. Results were compared to a ‘mock’ treatment, in which cells received no anti-miR treatment. The experiment was repeated and results of two experimental replicates are shown in the following Table D, as fold change in luciferase value relative to the mock treatment.

[1] = system: UUO model of kidney fibrosis; assay: Unilateral ureteral obstruction (UUO) model of kidney fibrosis: kidney collagen 1A1 and collagen 3A1 expression by real-time PCR; format: in vivo, mice; details: for Collagen 3A1 (Normalized Expression) Mean / Collagen 1A1 (Normalized Expression) Mean / Collagen 1A1 (Normalized Expression) / Collagen 3A1 (Normalized Expression): Table K, UUO mice, kidney at day 11; for Collagen 3A1 (Normalized Expression) Mean / Collagen 1A1 (Normalized Expression) Mean: group mean; for Collagen 3A1 (Normalized Expression) Mean / Collagen 1A1 (Normalized Expression) Mean / reduction in collagen expression (in words): 20 mg/kg at days -3, -1, +5; for Collagen 3A1 (Normalized Expression) Mean: UUO-PBS mean 87.2; for Collagen 1A1 (Normalized Expression) Mean: UUO-PBS mean 114.9; for Collagen 1A1 (Normalized Expression) / Collagen 3A1 (Normalized Expression): individual animals, 20 mg/kg at days -3, -1, +5 (prophylactic), real-time PCR normalized to GAPDH then sham, 20 mg/kg; for reduction in collagen expression (in words): meta-analysis of UUO studies; for collagen 1A1 expression (FIG. 2A, in words) / collagen 3A1 expression (FIG. 2B, in words): UUO, 20 mg/kg at days -5, -3, +3, kidney at day 10
Description: Unilateral ureteral obstruction (UUO) is a well-established experimental model of renal injury leading to interstitial fibrosis, and thus is used as an experimental model that is reflective of human kidney disease. UUO is induced by surgically ligating a single ureter. As fibrosis is characterized by an increase in collagen, the presence and extent of kidney fibrosis may be determined by measuring collagen content. Both collagen 1A1 (Col 1A1) and collagen 3A1 (Col 3A1) are measured to assess collagen content. Kidney fibrosis may be visualized by staining tissue samples with picro-sirius red to detect increases in collagen content. Kidney fibrosis may also be observed by measuring the amount of hydroxyproline, which is a major component of collagen, in a sample.
The cEt-containing anti-miR-21 compounds found to be active in the luciferase assay were tested in the UUO model of kidney fibrosis. 25919 comprising 2′-MOE and 2′-fluoro modifications is known to inhibit miR-21 activity in vivo and was included as a positive control. Groups of 8 animals each were treated as follows: UUO only, UUO with PBS, or UUO with anti-miR-21 compound. Relative to the day of the UUO procedure, PBS or anti-miR-21 compound was administered at days −3, −1, and +5. Anti-miR-21 compounds were administered at a dose of 20 mg/kg. As the anti-miR compounds were administered prior to the UUO procedure, this dosing regimen is considered a prophylactic treatment. At day 11, animals were sacrificed and kidney was isolated for measurement of collagen expression. Collagen expression was measured by real-time PCR and normalized first to GAPDH and then to the sham control animals.
The UUO study was repeated to confirm the activity of 25070. The anti-miR was administered subcutaneously at a dose of 20 mg/kg.
Control treatment groups included UUO only (sham) and UUO with PBS administered subcutaneously. An additional control group included UUO with Tween-MC/20 carrier perorally. 25070 administered subcutaneously at dose of 20 mg/kg at 5 days prior to, 2 days prior to, and 3 days after, the UUO procedure. Irbesartan was administered perorally on daily on days 0 through 7 following the UUO procedure. Animals were sacrificed on Day 10 following the UUO procedure. Kidney tissue was collected for measurement of collagen 1A1 and collagen 3A1 expression.
Compounds 25220 and 25221, as well as 25923, were tested in the UUO model for their effects on fibrosis. Groups of 8 animals each were treated as follows: sham surgery, UUO with PBS, UUO with 25220, UUO with 25221, or UUO with 25923. Relative to the day of the UUO procedure, PBS or anti-miR-21 compound was administered at days −5, −3, and +3. Anti-miR-21 compounds were administered at a dose of 20 mg/kg. As the anti-miR compounds were administered prior to the UUO procedure, this dosing regimen is considered a prophylactic treatment. At day 10, animals were sacrificed and kidney was isolated for measurement of collagen expression. Collagen expression was measured by real-time PCR and normalized to GAPDH.

[2] = In vivo stability of compound in kidney tissue after administration to mice; details: kidney tissue after administration; for in vivo (kidney) N − 1 (%): compound lacking the 3′-terminal nucleoside; for in vivo (kidney) N (%): full-length compound
[3] = Ex vivo liver homogenate stability assay (HPLC-TOF MS); details: 24 hours at 37° C.; for ex vivo (liver) N %↓: full-length compound; for ex vivo (liver) % Endo / ex vivo (liver) % N − 1: 5 μM oligonucleotide in liver homogenate; for ex vivo (liver) % N − 1: compound lacking the 3′-terminal nucleoside
[4] = 500 nM oligonucleotide, two experimental replicates
[5] = 5 μM oligonucleotide in liver homogenate (50 mg tissue per ml)

Substance	luciferase value normalized to beta-galactosidase activity (miR-21; 4 nM oligonucleotide)	luciferase value normalized to beta-galactosidase activity (miR-21; 20 nM oligonucleotide)	luciferase value normalized to beta-galactosidase activity (miR-21; 100 nM oligonucleotide)	luciferase value normalized to beta-galactosidase activity (miR-21; [4])	luciferase value normalized to beta-galactosidase activity (miR-21; .16 nM oligonucleotide)	luciferase value normalized to beta-galactosidase activity (miR-21; .8 nM oligonucleotide)	inhibition of miR-21 activity in the luciferase assay (in words) (miR-21)	Collagen 3A1 (Normalized Expression) Mean [1]	Collagen 1A1 (Normalized Expression) Mean [1]	Collagen 1A1 (Normalized Expression) [1]	Collagen 3A1 (Normalized Expression) [1]	reduction in collagen expression (in words) [1]	other results
TE^MeCAACSATCSAGTCSTGAUSAAGCSTAE (TCAACATCAGTCTGATAAGCTA; modified nucleosides with 5-methyl C, code letters not given here, further chemistry not given here) [Compound 25082]	112	147	176	202	70	89	inhibition of miR-21 in a dose-dependent manner	59.1	91.7	122.2 and 188.3 and 102.5 and 67.6 and 40.6 and 44.1 and 73.8 and 94.7	62.9 and 78.9 and 82.2 and 43.8 and 32.6 and 34.3 and 75.8 and 62.5	did not consistently demonstrate a reduction in collagen expression	
AECSATCSASGTCSUSGAUSASAGCSUsAE (ACATCAGTCTGATAAGCTA; sugar and backbone modifications, chemistry not fully specified) [Compound 25220]													collagen 1A1 expression (FIG. 2A, in words) [1]: reduced collagen 1A1 and collagen 3A1 expression by a stastically significant amount; collagen 3A1 expression (FIG. 2B, in words) [1]: reduced collagen 1A1 and collagen 3A1 expression by a stastically significant amount
AECSATCSAGTCSTGAUSAAGCSUsAS (ACATCAGTCTGATAAGCTA; sugar and backbone modifications, chemistry not fully specified) [Compound 25221]													collagen 1A1 expression (FIG. 2A, in words) [1]: reduced collagen 1A1 and collagen 3A1 expression by a stastically significant amount; collagen 3A1 expression (FIG. 2B, in words) [1]: reduced collagen 1A1 and collagen 3A1 expression by a stastically significant amount
AECSATCSAGTCSTGAUSAAGCSTAS (antisense ACATCAGTCTGATAAGCTA; cEt and 2'-MOE nucleosides) [Compound 25923]													in vivo (kidney) N − 1 (%) [2]: 14 ± 5%; in vivo (kidney) N (%) [2]: 58 ± 3%; compound lacking the 3′-terminal nucleoside [3, 5]: about 18%; compound present as the full-length compound [3, 5]: About 68%; ex vivo (liver) N %↓ [3, 5]: 17%; ex vivo (liver) % Endo [3]: 2-3%; ex vivo (liver) % N − 1 [3]: 13%
AECSATCSAGTCSTGAUSAAGCSUsAS (ACATCAGTCTGATAAGCTA; sugar and backbone modifications) [Compound 25221]													in vivo (kidney) N − 1 (%) [2]: 4 ± 1%; in vivo (kidney) N (%) [2]: 76 ± 4%; ex vivo (liver) N %↓ [3, 5]: 3%; ex vivo (liver) % Endo [3]: 3%; ex vivo (liver) % N − 1 [3]: 0%
AECSAETECSAEGETECSTEGEAEUSAEAEGECSTEAE (ACATCAGTCTGATAAGCTA; anti-miR; sugar and backbone modifications, code letters not given here, further chemistry not given here) [Compound 25072]	76	86	115	143	40	49	inhibition of miR-21 in a dose-dependent manner	65.5	113.8	96.2 and 85.7 and 127.4 and 100.0 and 159.2 and 120.5 and 108.0	69.4 and 54.5 and 58.8 and 69.2 and 93.8 and 65.8 and 46.9	did not consistently demonstrate a reduction in collagen expression	
TE^MeCEAEAECSAETECSAEGETECSTEGEAEUSAEAEGECSTEAE (TCAACATCAGTCTGATAAGCTA; modified nucleosides and phosphorothioate, code letters not given here, further chemistry not given here) [Compound 25068]	64	86	97	122	45	54	inhibition of miR-21 in a dose-dependent manner	60.6	96.4	84.7 and 75.1 and 85.5 and 89.1 and 90.4 and 125.8 and 124.4	64.8 and 56.2 and 47.4 and 76.2 and 57.0 and 63.0 and 59.6	active in reducing collagen expression, but to a lesser extent than 25070	
